Laboratory results reported in patent publication US11192849B2, “Compounds, compositions, and methods for modulating ferroptosis and treating excitotoxic disorders” (THE TRUSTEES OF COLUMBIA UNIVERSITY IN THE CITY OF NEW YORK, priority 2013, dated 2021).

Each compound was assayed on HT-1080 cells (assay: Inhibition of erastin (10 μM)-induced death in HT-1080 cells (Alamar Blue)). Details: HT-1080, erastin (10 μM).
Format: cell-based, human
Procedure: Cell viability was typically assessed in 384-well format by Alamar Blue (Invitrogen) fluorescence (ex/em 530/590) measured on a Victor3 platereader (Perkin Elmer, Waltham, Mass.). In some experiments, Trypan Blue dye exclusion counting was performed using an automated cell counter (ViCell, Beckman-Coulter Inc., Brea, Calif.). Cell viability in test conditions is reported as a percentage relative to the negative control treatment.
The ability of various compounds disclosed herein to inhibit death in erastin (10 μM)-treated HT-1080 cells were tested. Cell viability was assessed by Alamar Blue. EC50 values (nM) were computed from dose response curves.
HT-1080 cells are cultured in DMEM containing 10% fetal bovine serum, 1% supplemented non-essential amino acids and 1% pen/strep mixture (Gibco) and maintained in a humidified environment at 37° C. with 5% CO2 in a tissue culture incubator. 1,000 HT-1080 cells are seeded per well in duplicate 384-well plates (Corning) using a BioMek FX liquid handling robot (Beckman Coulter). The next day, the medium is replaced with 36 μL of medium containing 10 μM erastin with 4 μL of medium containing a dilution series (previously prepared) of DMSO, Fer-1 (positive control) or Fer-1 analogs. 24 hours later, 10 μL Alamar Blue (Invitrogen) cell viability solution is added to the growth media to a final concentration of 10%. Cells are incubated a further 6 hours and then the Alamar Blue fluorescence intensity recorded using a Victor 3 platereader (PerkinElmer)(ex/em 530/590). All experiments are performed at least twice and the background (no cells)-subtracted Alamar Blue values for each combination are averaged between replicates.

SMILES | potency compared with Fer-1
CCOC(=O)c1ccc(NC2CCCCC2)c(NCc2ccncc2)c1 [SRS12-45, ethyl 4-(cyclohexylamino)-3-((pyridin-4-ylmethyl)amino)-benzoate] | more potent than Fer-1

Same assay, conditions: Homo sapiens, HT-1080, SI Table 2, analogs with various hydrophobic moieties; read-out: EC50

SMILES | EC50 [nM]
CCOC(=O)c1ccc(NC2CCCCCCC2)c(N)c1 [SRS8-70, ethyl 3-amino-4-(cyclooctylamino)benzoate] | 80
CCCCCCCCNc1ccc(C(=O)OCC)cc1N [SRS8-94, ethyl 3-amino-4-(octylamino)benzoate] | 80
CCOC(=O)c1ccc(NC2CCCCCCCCCCC2)c(N)c1 [SRS9-06, ethyl 3-amino-4-(cyclododecylamino)benzoate] | 70

Same assay, conditions: Homo sapiens, HT-1080, SI Table 3, cyclic amines bearing heteroatoms; read-out: EC50

SMILES | EC50 [nM]
CCOC(=O)c1ccc(NC2CCC(N)CC2)c(N)c1 (centres unmarked) [SRS8-80, ethyl 3-amino-4-(4-aminocyclohexylamino)benzoate] | 380

Same assay, conditions: Homo sapiens, HT-1080, SI Table 4, various R3 substitutions; read-out: EC50

SMILES | EC50 [nM]
COC(=O)c1ccc(NC2CCCCC2)c(N)c1 [SRS8-61, methyl 3-amino-4-(cyclohexylamino)benzoate] | 150
Nc1ccccc1NC1CCCCC1 [SRS8-75, N1-cyclohexylbenzene-1,2-diamine] | 330
CC(C)(C)OC(=O)c1ccc(NC2CCCCCCC2)c(N)c1 [SRS8-87, tert-butyl 3-amino-4-(cyclooctylamino)benzoate] | 90
CCCCCCCCCCOC(=O)c1ccc(NC2CCCCC2)c(N)c1 [SRS12-29, decyl 3-amino-4-(cyclohexylamino)benzoate] | 76
Nc1cc(C(=O)OCCN2CCOCC2)ccc1NC1CCCCC1 [SRS12-47, 2-morpholinoethyl 3-amino-4-(cyclohexylamino)benzoate] | 660

Same assay, conditions: Homo sapiens, HT-1080, SI Table 5; read-out: EC50

SMILES | EC50 [nM]
CCOC(=O)c1ccc(NC2CCCCCCC2)c(N)c1 [SRS8-70, ethyl 3-amino-4-(cyclooctylamino)benzoate] | 69
CCOC(=O)c1ccc(NC2CCCCCCC2)c(NC(=O)OC(C)(C)C)c1 [SRS8-91, ethyl 3-(tert-butoxycarbonylamino)-4-(cyclooctylamino)-benzoate] | > 10000
CCCCCCCCNc1ccc(C(=O)OCC)cc1N [SRS8-94, ethyl 3-amino-4-(octylamino)benzoate] | 80
CCOC(=O)c1ccc(NC2CCCCCCC2)c(N(C)C)c1 [SRS9-01, ethyl 4-(cyclooctylamino)-3-(dimethylamino)benzoate] | 3000
CCOC(=O)c1ccc(NC2CCCCCCC2)c(NC)c1 [SRS9-14, ethyl 4-(cyclooctylamino)-3-(methylamino)benzoate] | 70
CCOC(=O)c1ccc(NC2CCCCC2)c(NC(=O)OCc2ccccc2)c1 [SRS11-89, ethyl 3-(benzyloxycarbonylamino)-4-(cyclohexylamino)-benzoate] | > 10000
CCOC(=O)c1ccc(NC2CCCCC2)c(NC(=O)OC)c1 [SRS11-97, ethyl 4-(cyclohexylamino)-3-(methoxycarbonylamino)benzoate] | > 10000
CCOC(=O)c1ccc(NC2CCCCC2)c(NC(C)=O)c1 [SRS11-98, ethyl 4-(cyclohexylamino)-3-ethanamidobenzoate] | > 10000
CCCCCCCCN(CCCCCCCC)c1ccc(C(=O)OCC)cc1N [SRS12-12, ethyl 3-amino-4-(dioctylamino)benzoate] | 15300

Same assay, conditions: Homo sapiens, HT-1080, SI Table 6; read-out: EC50

SMILES | EC50 [nM]
CCOC(=O)c1ccc(NC2CCCCC2)c(NCc2ccc(F)cc2)c1 [SRS12-33, ethyl 4-(cyclohexylamino)-3-((4-fluorobenzyl)amino)benzoate] | 50
CCOC(=O)c1ccc(NC2CCCCC2)c(NCc2ccc(C)cc2)c1 [SRS12-34, ethyl 4-(cyclohexylamino)-3-((4-methylbenzyl)amino)benzoate] | 40
CCOC(=O)c1ccc(NC2CCCCC2)c(NCc2ccc(Br)cc2)c1 [SRS12-35, ethyl 3-((4-bromobenzyl)amino)-4-(cyclohexylamino)benzoate] | 44
CCOC(=O)c1ccc(NC2CCCCC2)c(NCc2ccc([N+](=O)[O-])cc2)c1 [SRS12-36, ethyl 4-(cyclohexylamino)-3-((4-nitrobenzyl)amino)benzoate] | 36
CCOC(=O)c1ccc(NC2CCCCC2)c(NCc2ccc(OC)cc2)c1 [SRS12-43, ethyl 4-(cyclohexylamino)-3-((4-methoxybenzyl)amino)-benzoate] | 69
CCOC(=O)c1ccc(NC2CCCCC2)c(NCc2ccc(C(F)(F)F)cc2)c1 [SRS12-48, ethyl 4-(cyclohexylamino)-3-(4-(trifluoromethyl)benzylamino)-benzoate] | 46
CCOC(=O)c1ccc(NC2CCCCC2)c(NCc2ccc(Cl)cc2)c1 [SRS12-49, ethyl 3-(4-chlorobenzylamino)-4-(cyclohexylamino)benzoate] | 371
CCOC(=O)c1ccc(NC2CCCCC2)c(NCc2ccc(C#N)cc2)c1 [SRS12-50, ethyl 3-(4-cyanobenzylamino)-4-(cyclohexylamino)benzoate] | 100
CCOC(=O)c1ccc(NC2CCCCC2)c(NCc2cccc(F)c2)c1 [SRS12-57, ethyl 4-(cyclohexylamino)-3-(3-fluorobenzylamino)benzoate] | 100
CCOC(=O)c1ccc(NC2CCCCC2)c(NCc2cccc(Cl)c2)c1 [SRS12-58, ethyl 3-(3-chlorobenzylamino)-4-(cyclohexylamino)benzoate] | 41
CCOC(=O)c1ccc(NC2CCCCC2)c(NCc2ccccc2[N+](=O)[O-])c1 [SRS12-71, ethyl 4-(cyclohexylamino)-3-(2-nitrobenzylamino)benzoate] | 126

Same assay, conditions: Homo sapiens, HT-1080, SI Table 7; read-out: EC50

SMILES | EC50 [nM]
CCOC(=O)c1ccc(NC2CCCCC2)c(NCc2ccncc2)c1 [SRS12-45, ethyl 4-(cyclohexylamino)-3-((pyridin-4-ylmethyl)amino)-benzoate] | 25
CCOC(=O)c1ccc(NC2CCCCC2)c(NCc2ccccn2)c1 [SRS12-46, ethyl 4-(cyclohexylamino)-3-(pyridin-2-ylmethylamino)-benzoate] | 33
CCOC(=O)c1ccc(NC2CCCCC2)c(NCc2ccc3ccccc3c2)c1 [SRS12-51, ethyl 4-(cyclohexylamino)-3-(naphthalen-2-ylmethylamino)-benzoate] | 58
CCOC(=O)c1ccc(NC2CCCCC2)c(NCc2cc(F)cc(Br)c2)c1 [SRS12-52, ethyl 3-(3-bromo-5-fluorobenzylamino)-4-(cyclohexylamino)-benzoate] | 105
CCOC(=O)c1ccc(NC2CCCCC2)c(NCc2cc(OC)cc(OC)c2)c1 [SRS12-53, ethyl 4-(cyclohexylamino)-3-(3,5-dimethoxybenzylamino)-benzoate] | 41
CCOC(=O)c1ccc(NC2CCCCC2)c(NCc2ccc(F)c(C#N)c2)c1 [SRS12-54, ethyl 3-(3-cyano-4-fluorobenzylamino)-4-(cyclohexylamino)-benzoate] | 159
CCOC(=O)c1ccc(NC2CCCCC2)c(NCc2cc(F)cc(F)c2)c1 [SRS12-59, ethyl 4-(cyclohexylamino)-3-(3,5-difluorobenzylamino)-benzoate] | 96
CCOC(=O)c1ccc(NC2CCCCC2)c(NCc2ccc(C(=O)OC)cc2)c1 [SRS12-80, ethyl 4-(cyclohexylamino)-3-(4-(methoxycarbonyl)-benzylamino)benzoate] | 33
CCOC(=O)c1ccc(CNc2cc(C(=O)OCC)ccc2NC2CCCCC2)cc1 [SRS12-84, ethyl 4-(cyclohexylamino)-3-(4-(ethoxycarbonyl)benzylamino)-benzoate] | 53
CCOC(=O)c1ccc(NC2CCCCC2)c(NCc2cccnc2)c1 [SRS13-12, ethyl 4-(cyclohexylamino)-3-(pyridin-3-ylmethylamino)-benzoate] | 48
CCOC(=O)c1ccc(NC2CCC(C(C)(C)C)CC2)c(NCc2ccncc2)c1 (centres unmarked) [SRS13-30, ethyl 4-(4-tert-butylcyclohexylamino)-3-(pyridin-4-ylmethylamino)benzoate] | 114

Same assay, conditions: Homo sapiens, HT-1080, Table 1 (Example 10); erastin (10 μM)-treated HT-1080 cells; read-out: EC50

SMILES | EC50 [nM]
CCOC(=O)c1ccc(NC2C3CC4CC(C3)CC2C4)c(N)c1 (centres unmarked) [SRS15-17, ethyl 3-amino-4-(2-adamantylamino)benzoate] | 171
CCOC(=O)c1ccc(NC23CC4CC(CC(C4)C2)C3)c(N)c1 [SRS15-18, ethyl 3-amino-4-(1-adamantylamino)benzoate] | 87.7
CCOC(=O)c1ccc(NC2C3CC4CC(C3)CC2C4)c(N(Cc2ccccc2)Cc2ccccc2)c1 (centres unmarked) [SRS15-20_di, ethyl 3-(dibenzylamino)-4-(2-adamantylamino)benzoate] | 914
CCOC(=O)c1ccc(NC2C3CC4CC(C3)CC2C4)c(NCc2ccccc2)c1 (centres unmarked) [SRS15-20_mono, ethyl 3-(benzylamino)-4-(2-adamantylamino)benzoate] | 21.7
CCOC(=O)c1ccc(NC2C3CC4CC(C3)CC2C4)c(NCc2ccncc2)c1 (centres unmarked) [SRS15-21, ethyl 4-(2-adamantylamino)-3-((pyridin-4-ylmethyl)amino)-benzoate] | 23

Same assay, conditions: SI Table 2, analogs with various hydrophobic moieties; read-out: EC50

SMILES | EC50 [nM]
CCOC(=O)c1ccc(NC2CCCC2)c(N)c1 [SRS8-73] | 120
CCOC(=O)c1ccc(NC2CCCCCC2)c(N)c1 [SRS8-90] | 130

Same assay, conditions: SI Table 8; read-out: EC50

SMILES | EC50 [nM]
CCOC(=O)c1ccc(Cl)c(N)c1 [SRS8-62] | > 10000

Same assay, conditions: Table 1 (Example 10); erastin (10 μM)-treated HT-1080 cells

SMILES | EC50 (nM)
CCOC(=O)c1ccc(NC23CC4CC(CC(C4)C2)C3)c([N+](=O)[O-])c1 [SRS15-15] | Not active
